Measurements: patent publication US20210134398A1, “Combinatorial Chemistry Computational System and Enhanced Selection Method” (Southern Methodist University, priority 2019, published 2021)
Entries after “also recorded” stand apart in the source; their conditions may differ.

What was measured:
[1] = molecular target: T1, P-gp-catalyzed transport of calcein AM in DU145TXR cells (Homo sapiens, UniProt P08183); test: Calcein AM accumulation assay; assay type: cell-based; conditions: after 6-hour pre-incubation, compared to parental 29
T1 construct: DU145 human prostate cancer cells^52 as well as the multidrug resistant sub-line, DU145TXR; endogenous in cells; host or cells: DU145TXR (paclitaxel-selected sub-line of human DU145 prostate cancer cells)
T1 sequence (P08183 whole entry): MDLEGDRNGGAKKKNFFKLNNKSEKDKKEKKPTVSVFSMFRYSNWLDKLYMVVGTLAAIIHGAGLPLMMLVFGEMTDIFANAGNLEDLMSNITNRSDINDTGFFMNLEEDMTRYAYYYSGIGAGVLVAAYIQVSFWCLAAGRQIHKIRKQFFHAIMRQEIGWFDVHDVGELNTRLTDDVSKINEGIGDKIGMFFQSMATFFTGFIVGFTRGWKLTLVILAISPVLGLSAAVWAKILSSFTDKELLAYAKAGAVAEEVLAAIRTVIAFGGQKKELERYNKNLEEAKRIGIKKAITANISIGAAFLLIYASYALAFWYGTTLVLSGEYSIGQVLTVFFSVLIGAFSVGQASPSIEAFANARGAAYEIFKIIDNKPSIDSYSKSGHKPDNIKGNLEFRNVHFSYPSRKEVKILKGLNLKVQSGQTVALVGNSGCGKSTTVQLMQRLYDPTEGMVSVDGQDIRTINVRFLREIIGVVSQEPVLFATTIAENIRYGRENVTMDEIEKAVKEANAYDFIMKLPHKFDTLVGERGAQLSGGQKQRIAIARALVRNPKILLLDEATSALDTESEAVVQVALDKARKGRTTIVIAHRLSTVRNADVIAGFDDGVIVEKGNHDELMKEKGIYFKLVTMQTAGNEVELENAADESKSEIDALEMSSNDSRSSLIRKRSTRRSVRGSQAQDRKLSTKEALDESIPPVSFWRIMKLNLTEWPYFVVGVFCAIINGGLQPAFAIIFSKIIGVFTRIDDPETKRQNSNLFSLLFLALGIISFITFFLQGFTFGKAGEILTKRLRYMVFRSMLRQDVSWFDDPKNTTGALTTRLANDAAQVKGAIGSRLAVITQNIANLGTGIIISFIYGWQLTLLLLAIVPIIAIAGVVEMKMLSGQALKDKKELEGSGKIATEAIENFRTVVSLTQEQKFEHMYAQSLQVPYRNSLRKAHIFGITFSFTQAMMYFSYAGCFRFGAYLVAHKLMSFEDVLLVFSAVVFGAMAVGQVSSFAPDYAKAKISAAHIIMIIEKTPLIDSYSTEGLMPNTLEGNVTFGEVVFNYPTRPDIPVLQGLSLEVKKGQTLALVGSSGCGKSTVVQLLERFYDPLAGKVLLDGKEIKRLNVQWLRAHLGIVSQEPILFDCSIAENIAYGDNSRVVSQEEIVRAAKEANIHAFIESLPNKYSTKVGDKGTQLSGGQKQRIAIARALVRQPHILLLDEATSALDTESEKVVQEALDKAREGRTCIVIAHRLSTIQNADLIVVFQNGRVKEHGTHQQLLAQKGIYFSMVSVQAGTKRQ
Experimental: Accumulation and cellular retention of calcein AM in P-gp overexpressing prostate cancer cells upon incubation with Group 1 SMU-29 variants. Calcein AM accumulation assays have been used by us previously to evaluate P-gp-substrate accumulation in real time in the presence or absence of P-gp inhibitors^28. For these assays, P-gp overexpressing DU145TXR cells were incubated with the respective inhibitors in the presence of the P-gp substrate, calcein AM. Inhibition of P-gp leads to cellular accumulation of calcein AM and to cleavage of its acetoxymethyl ester groups, resulting in the generation of the highly fluorescent compound, calcein. The anionic calcein is not a substrate of P-gp and remains in the cells. In these assays, the relative fluorescence of cellular calcein was measured over time and the results of these assays are shown in FIG. 13A. […]
Calcein AM assay. To assess inhibition of P-gp-catalyzed transport of the P-gp pump substrate, calcein AM, DU145TXR cells were seeded in 96 wells plates and allowed to grow in complete medium until confluency was reached. Medium was removed, and cells were treated […] P-gp inhibitory compounds and 1 μg/mL calcein AM (Life Technologies, OR) and diluted into phenol red free RPMI 1640 media. To study the effect of pre-incubation of compounds, cells were treated with just P-gp inhibitory compounds and incubated at 37° C. for six hours before adding calcein AM. Fluorescence excitation at 485 nm with a 20 nm gate and at emission at 535 nm with a 20 nm gate was measured using a BioTek Cytation 5 imaging multi-mode reader (Bio-Tek, Winooski, Vt.) over 60 minutes in 20 minute intervals. DMSO was used as vehicle. Results were plotted as the mean with standard deviation (SD) of six replicates per concentration and are representative of at least two independent experiments.

[2] = molecular target: T2, Normal Human MDR1 P-glycoprotein (Homo sapiens, UniProt P08183); test: ATPase activity assay (basal and verapamil-stimulated), P-gp in nanodiscs; assay type: biochemical; conditions: for Effect on stimulated ATPase / Stimulated ATPase: in the presence of verapamil; for Stimulated ATPase / Basal ATPase: ± standard deviation; for Effect on basal ATPase / Basal ATPase: no added transport substrate
T2 construct: made in house; host or cells: Pichia pastoris (P-gp); E. coli BL21 (DE3) (MSP1E3D1)
T2 sequence (P08183 whole entry): as above
From the text: To assess whether the observed discrepancies of compounds stimulating basal P-gp ATPase activity but not being transport substrates of the human pump in the cell culture assessments were due to the fact that these biochemical assays used a cysteineless variant of the mouse MDR3 P-glycoprotein, the experiments were repeated using normal human MDR1 P-gp. In order to stabilize the human protein for the activity assays, the protein was assembled into membrane nanodiscs as described herein.
P-glycoprotein Purification. Cysteine-less MDR3 and the human normal MDR1 P-glycoprotein was recombinantly expressed in the yeast Pichia pastoris essentially as in^45, 46 and used for assaying ATP hydrolysis and ATP binding to the protein in the presence of the 29-variants. Purification of the protein was performed as described^49 with small modifications resulting in highly enriched P-gp in mixed micelles containing dodecyl maltoside (DDM) and lysophosphatidyl choline^26.
Nanodisc assembly. Human P-gp in mixed detergent micelles obtained during protein purification, was reconstituted into nanodiscsas described in references^73, 74 with small modifications. […] The detergent was removed with Bio-Beads™ SM-2 Adsorbent Media (BioRad). Ni-NTA Agarose (Qiagen) chromatography was used to purify P-gp reconstituted nanodiscs using 6 bed volumes of start buffer (20% (v/v) glycerol, 50 mM Tris-CL pH 7.5 at 4° C., 50 mM NaCl), and 5 bed volumes of elution buffer (20% (v/v) glycerol, 50 mM Tris-Cl pH 7.5 at 4° C., 50 mM NaCl, 300 mM imidazole).
ATPase Activity Assays. ATP hydrolysis activity was measured using a coupled enzyme assay^72 as modified in reference^26.

[3] = molecular target: T1, P-gp-catalyzed transport of calcein AM in DU145TXR cells; test: Calcein AM accumulation assay; assay type: cell-based; conditions: without pre-incubation, compared to parental 29, 5 μM stated for Group 2
[4] = molecular target: T3, cysteineless mouse P-glycoprotein (Mus musculus, UniProt P21447, C1070A/C1121A/C1223A/C133A/C427A/C638A/C669A/C713A/C952A); test: SL-ATP (spin-labeled ATP analog) binding titration by ESR; conditions: for Maximum ATP binding: in the presence of the compound, ± standard deviation
T3 construct: made in house; host or cells: Pichia pastoris
T3 sequence (P21447 whole entry C133A/C427A/C638A/C669A/C713A/C952A/C1070A/C1121A/C1223A): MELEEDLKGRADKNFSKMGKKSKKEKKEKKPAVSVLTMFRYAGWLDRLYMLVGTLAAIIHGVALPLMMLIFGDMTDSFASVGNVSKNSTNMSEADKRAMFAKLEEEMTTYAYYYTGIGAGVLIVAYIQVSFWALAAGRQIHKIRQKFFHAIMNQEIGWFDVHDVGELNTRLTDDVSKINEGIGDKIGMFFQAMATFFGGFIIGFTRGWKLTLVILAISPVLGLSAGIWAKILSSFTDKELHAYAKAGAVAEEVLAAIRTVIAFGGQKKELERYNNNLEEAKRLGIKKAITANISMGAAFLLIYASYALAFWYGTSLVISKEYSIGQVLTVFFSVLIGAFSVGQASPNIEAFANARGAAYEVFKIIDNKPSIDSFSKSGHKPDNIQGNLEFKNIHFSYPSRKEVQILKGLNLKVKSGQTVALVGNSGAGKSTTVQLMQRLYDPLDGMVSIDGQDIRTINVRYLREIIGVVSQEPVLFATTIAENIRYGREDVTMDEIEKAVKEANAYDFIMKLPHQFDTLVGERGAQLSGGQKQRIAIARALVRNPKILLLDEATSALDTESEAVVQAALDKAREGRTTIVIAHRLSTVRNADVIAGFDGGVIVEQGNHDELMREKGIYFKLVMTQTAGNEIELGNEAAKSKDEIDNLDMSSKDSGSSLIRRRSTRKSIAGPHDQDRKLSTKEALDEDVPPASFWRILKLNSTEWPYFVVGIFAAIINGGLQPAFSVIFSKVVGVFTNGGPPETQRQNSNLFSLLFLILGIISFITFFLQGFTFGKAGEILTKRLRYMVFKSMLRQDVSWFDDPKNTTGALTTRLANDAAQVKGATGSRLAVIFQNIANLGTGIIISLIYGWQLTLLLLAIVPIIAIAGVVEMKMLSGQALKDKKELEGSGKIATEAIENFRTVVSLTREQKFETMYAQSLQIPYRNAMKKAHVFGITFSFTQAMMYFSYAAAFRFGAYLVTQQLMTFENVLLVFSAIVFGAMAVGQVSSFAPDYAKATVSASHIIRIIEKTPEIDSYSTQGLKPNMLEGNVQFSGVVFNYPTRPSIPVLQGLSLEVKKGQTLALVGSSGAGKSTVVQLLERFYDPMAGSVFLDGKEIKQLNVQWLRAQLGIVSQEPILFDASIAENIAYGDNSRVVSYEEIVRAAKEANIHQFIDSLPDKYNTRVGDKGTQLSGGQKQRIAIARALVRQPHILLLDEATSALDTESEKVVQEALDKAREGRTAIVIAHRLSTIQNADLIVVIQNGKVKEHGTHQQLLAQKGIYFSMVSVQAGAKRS
Experimental: Effects of 29 variants on binding of an ATP-analog to purified P-glycoprotein. ATP binding in the presence of the 29 variants was assessed in titration assays using a spin-labeled analog of ATP, 2′,3′-SL-ATP (2′,3′-(2,2,5,5,-tetramethyl-3-pyrroline-1-oxyl-3-carboxylic acid ester) ATP; (2′,3′ indicates a rapid equilibrium of the ester bond between the C2′ and C3′ of the ribose moiety))^48-50, and electron spin resonance spectroscopy as described in^26. Due to the lower stability of the human P-glycoprotein in the extended times needed for these experiments, the cysteineless mouse protein was used here. The goal was to assess whether binding of the 29 variants to P-gp affected nucleotide binding to the protein.
ESR Measurements. ESR measurements were as described in^26. The amount of protein-bound spin-labeled (SL) adenine nucleotide was determined as the difference between the known total concentration of SL-ATP (2′,3′-(2,2,5,5,-tetramethyl-3-pyrroline-1-oxyl-3-carboxylic acid ester) —ATP^48) added and the free spin-labeled nucleotide (SL-ANP) observed in the experiment. Hyperbolic curve fitting of the results was performed using GraphPad Prism 7 to determine maximum binding and apparent affinity for the spin-labeled nucleotide. The equation used for the fitting the curves was […], where P1 corresponds to the maximum binding of SL-ANP (moles of SL-ANP bound per mole P-gp), and P2 equals the apparent dissociation constant for SL-ANP. To quantify the amount of free SL-ANP, standard curves were established where the signal amplitude of the high field signal of the ESR spectra of free SL-ANP in the absence of protein was correlated to the concentration of SL-ANP added. All ESR measurements were performed using a Bruker EMX 6/1 ESR spectrophotometer operating in X-band mode and equipped with a high sensitivity cavity. Spectra were acquired at a microwave frequency of 9.33 GHz, microwave power of 12.63 mW, 100 kHz modulation frequency and a resolution of 1024 points. The centerfield of the scan was at 3325 G and an area of 100 G was scanned. The peak to peak modulation amplitude was 1G and the time constant was set to 10.240 ms. The conversion time was 163.84 ms, resulting in a total time sweep of 167.772 s. The signal gain was adjusted for the SL-ATP concentrations in the different experiments.

| Compound | Calcein accumulation in DU145TXR (in words) ([1]; listed as 541) | Effect on stimulated ATPase [2] | Stimulated ATPase [2] | Effect on basal ATPase [2] | Basal ATPase [2] | Calcein accumulation in DU145TXR (in words) ([3]; listed as 541) | Effect on SL-ANP binding [4] | Maximum ATP binding [4] [mol SL-ANP bound/mol P-gp] | Calcein accumulation in DU145TXR (in words) [1] | Calcein accumulation in DU145TXR (in words) ([1]; listed as 278) | Calcein accumulation in DU145TXR (in words) [3] | Maximum ATP binding ([4]; listed as 278) | Maximum ATP binding ([4]; listed as SMU29-278) [mol SL-ANP bound/mol P-gp] |
| --- | --- | --- | --- | --- | --- | --- | --- | --- | --- | --- | --- | --- | --- |
| Cc1cc(C)c(-c2cc(NC(=O)CSc3nnc4c(n3)[nH]c3ccccc34)n(-c3ccccc3)n2)cc1C [29-541, 2-((5H-[1,2,4]triazino[5,6-b]indol-3-yl)thio)-N-(1-phenyl-3-(2,4,5-trimethylphenyl)-1H-pyrazol-5-yl)acetamide] | exceeded 29 significantly; also recorded: exceeded 29 upon preincubation | inhibitor | 66 ± 6 % of DMSO | none | 87 ± 9 % of DMSO | performed relatively equally to 29; also recorded: performed similar to the parental compound | no | 1.8 ± 0.1 | – | – | – | – | – |
| Cc1cc(C)c(-c2cc(NC(=O)CSCC(=O)NC34CC5CC(CC(C5)C3)C4)n(-c3ccccc3)n2)cc1C [29-278, 2-({[(adamantan-1-yl)carbamoyl]methyl}sulfanyl)-N-[1-phenyl-3-(2,4,5-trimethylphenyl)-1H-pyrazol-5-yl]acetamide] | – | inhibitor | 63 ± 6 % of DMSO | inhibitor | 74 ± 6 % of DMSO | – | yes | – | increased calcein accumulation | comparable to 29 | less calcein accumulation than the parental compound | about 1 mol SL-ANP bound/mol P-gp | 1.3 ± 0.1 |
